Test results published in patent publication US5210193A, “Piperazine derivatives” (American Cyanamid Company, priority 1990, dated 1993).
Converted amounts (≈) assume the structure as drawn. “And” between values parts separate entries of the source, which are not always exact repeats. Equal values may be shown once. Read-outs that look alike come from different tables or passages of the source.

Legend:
Assay in all cases: in vitro antibacterial MIC, agar plate dilution
Assay type in all cases: cell-based
Citrobacter div. K 82-24 = conditions: 35° C.
In short: (§1)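 Agar plate dilution on Mueller-Hinton agar, inoculum approximately 10^4 CFU per organism applied with a Steers replicator. MIC (mcg/ml) is the lowest compound concentration inhibiting visible growth after 18 hours at 35° C.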

[1] = system: Enterobacter cloacae K 84-10; conditions: 35° C.
In short: as §1

[2] = system: Enterobacter cloacae MOR 84-30; conditions: 35° C.
In short: as §1

[3] = system: Enterobacter cloacae VGH 84-39; conditions: 35° C.
In short: as §1

[4] = system: Escherichia coli ATCC 25922; conditions: 35° C.
In short: as §1

[5] = system: Escherichia coli CMC 84-11; conditions: Escherichia coli, CMC8411, 18 h, 35° C., read-out: MIC
In short: as §1

[6] = system: Escherichia coli CMC 84-50; conditions: 35° C.
In short: as §1

Escherichia coli LL 311 = conditions: Escherichia coli, LL311, 18 h, 35° C., read-out: MIC
In short: as §1

[7] = system: Escherichia coli MOR 84-20; conditions: 35° C.
In short: as §1

[8] = system: Escherichia coli VGH 84-19; conditions: 35° C.
In short: as §1

[9] = system: Klebsiella pneumoniae CMC 84-31; conditions: 35° C.
In short: as §1

[10] = system: Klebsiella pneumoniae IO 83-5; conditions: 35° C.
In short: as §1

[11] = system: Klebsiella pneumoniae MOR 84-24; conditions: 35° C.
In short: as §1

[12] = system: Morganella morganii CMC 84-37; conditions: 18 hours, 35° C.
In short: as §1

[13] = system: Morganella morganii CMC 84-38; conditions: 35° C.
In short: as §1

[14] = system: Morganella morganii MOR 84-45; conditions: 35° C.
In short: as §1

[15] = system: Morganella morganii VHG 84-12; conditions: Morganella morganii VHG 84-12 (VGH 84-12 for Example 131), 35° C.
In short: as §1

[16] = system: Proteus rettgeri CMC 84-41; conditions: Providencia rettgeri, CMC8441, 18 h, 35° C., read-out: MIC
In short: as §1

[17] = system: Proteus rettgeri IO 83-21; conditions: 35° C.
In short: as §1

[18] = system: Providencia stuarti CMC 83-3; conditions: 35° C.
In short: as §1

[19] = system: Pseudomonas aeruginosa CMC 83-20; conditions: 35° C.
In short: as §1

[20] = system: Pseudomonas aeruginosa K 84-16; conditions: 35° C.
In short: as §1

[21] = system: Pseudomonas aeruginosa LL-1244; conditions: 18 hours, 35° C.
In short: as §1

[22] = system: Pseudomonas aeruginosa VGH 84-3; conditions: 35° C.
In short: as §1

[23] = system: Pseudomonas aeruginosa VGH 84-4; conditions: 18 hours, 35° C.
In short: as §1

[24] = system: Serratia marcescens CMC 83-74; conditions: 35° C.
In short: as §1

[25] = system: Serratia marcescens K 84-18; conditions: 18 hours, 35° C.
In short: as §1

[26] = system: Serratia marcescens MOR 84-41; conditions: 35° C.
In short: as §1

[27] = system: Serratia marcescens VGH 84-30; conditions: Serratia marcescens, VGH8430, 18 h, 35° C., read-out: MIC
In short: as §1

[28] = system: Staphylococcus aureus CMC 83-131; conditions: 35° C.
In short: as §1

[29] = system: Staphylococcus aureus K 82-26; conditions: 35° C.
In short: as §1

[30] = system: Staphylococcus aureus Smith; conditions: 18 hours, 35° C.
In short: as §1

[31] = system: Staphylococcus aureus VGH 84-45; conditions: 18 hours, 35° C.
In short: as §1

[32] = system: Staphylococcus aureus VGH 84-47; conditions: 35° C.
In short: as §1

[33] = system: Streptococcus faecalis CMC 83-120; conditions: 35° C.
In short: as §1

[34] = system: Streptococcus faecalis UCI 85-19; conditions: 18 hours, 35° C.
In short: as §1

[35] = system: Streptococcus faecalis UCI 85-30; conditions: 35° C.
In short: as §1

[36] = system: Streptococcus faecalis VGH 84-65; conditions: 18 hours, 35° C.
In short: as §1

[37] = system: Streptococcus faecalis VGH 84-69; conditions: 35° C.
In short: as §1

[38] = system: Staphylococcus aureus ATTC 29213; conditions: Staphylococcus aureus, ATTC29213, 18 h, 35° C., read-out: MIC
In short: as §1

O=C(O)c1cn(C2CC2)c2cc(N3CCNC(C4CC4)C3)c(F)cc2c1=O (stereo not shown) [Example 124, 1-Cyclopropyl-7-(3-cvclopropyl-1-piperazinyl)-6-fluoro-1,4-dihydro-4-oxo-3-quinolinecarboxvlic acid,]
MIC (Citrobacter div. K 82-24; 18 hours): 0.03 µg/mL (≈ 0.0808 µM) | MIC ([1]; 18 hours): 0.015 µg/mL (≈ 0.0404 µM) | MIC ([2]; 18 hours): 0.5 µg/mL (≈ 1.35 µM) | MIC ([3]; 18 hours): 0.03 µg/mL (≈ 0.0808 µM) | MIC ([4]; 18 hours): < 0.015 µg/mL and 0.008 µg/mL | MIC [5]: 0.03 µg/mL (≈ 0.0808 µM) | MIC ([6]; 18 hours): 0.03 µg/mL (≈ 0.0808 µM) | MIC (Escherichia coli LL 311): 0.03 µg/mL (≈ 0.0808 µM) | MIC ([7]; 18 hours): 0.015 µg/mL (≈ 0.0404 µM) | MIC ([8]; 18 hours): 0.015 µg/mL (≈ 0.0404 µM) | MIC ([9]; 18 hours): 0.03 µg/mL (≈ 0.0808 µM) | MIC ([10]; 18 hours): 0.06 µg/mL (≈ 0.162 µM) | MIC ([11]; 18 hours): 0.06 µg/mL (≈ 0.162 µM) | MIC [12]: 0.06 µg/mL (≈ 0.162 µM) | MIC ([13]; 18 hours): 0.03 µg/mL (≈ 0.0808 µM) | MIC ([14]; 18 hours): 0.015 µg/mL (≈ 0.0404 µM) | MIC ([15]; 18 hours): 0.12 µg/mL (≈ 0.323 µM) | MIC [16]: 0.06 µg/mL (≈ 0.162 µM) | MIC ([17]; 18 hours): 0.12 µg/mL (≈ 0.323 µM) | MIC ([18]; 18 hours): 4 µg/mL (≈ 10.8 µM) | MIC ([19]; 18 hours): 4 µg/mL (≈ 10.8 µM) | MIC ([20]; 18 hours): 4 µg/mL (≈ 10.8 µM) | MIC [21]: 4 µg/mL (≈ 10.8 µM) | MIC ([22]; 18 hours): 8 µg/mL (≈ 21.5 µM) | MIC [23]: 2 µg/mL (≈ 5.38 µM) | MIC ([24]; 18 hours): 8 µg/mL (≈ 21.5 µM) | MIC [25]: 0.12 µg/mL (≈ 0.323 µM) | MIC ([26]; 18 hours): 0.12 µg/mL (≈ 0.323 µM) | MIC [27]: 2 µg/mL (≈ 5.38 µM) | MIC ([28]; 18 hours): 0.5 µg/mL (≈ 1.35 µM) | MIC ([29]; 18 hours): 1 µg/mL (≈ 2.69 µM) | MIC [30]: 0.06 µg/mL (≈ 0.162 µM) | MIC [31]: 0.06 µg/mL (≈ 0.162 µM) | MIC ([32]; 18 hours): 0.25 µg/mL (≈ 0.673 µM) | MIC ([33]; 18 hours): 1 µg/mL (≈ 2.69 µM) | MIC [34]: 2 µg/mL (≈ 5.38 µM) | MIC ([35]; 18 hours): 2 µg/mL (≈ 5.38 µM) | MIC [36]: 1 µg/mL (≈ 2.69 µM) | MIC ([37]; 18 hours): 1 µg/mL (≈ 2.69 µM)

O=C(O)c1cn(C2CC2)c2cc(N3CCNC(c4cc[nH]c4)C3)c(F)cc2c1=O (stereo not shown) [Example 119]
MIC (Citrobacter div. K 82-24; Citrobacter, DIV.K8224, 18 h, read-out: MIC): 0.03 µg/mL (≈ 0.0757 µM) | MIC ([1]; Enterobacter cloacae, K8410, 18 h, read-out: MIC): 0.3 µg/mL (≈ 0.757 µM) | MIC ([2]; Enterobacter cloacae, MOR8430, 18 h, read-out: MIC): 0.5 µg/mL (≈ 1.26 µM) | MIC ([3]; Enterobacter cloacae, VGH8439, 18 h, read-out: MIC): 0.06 µg/mL (≈ 0.151 µM) | MIC ([4]; Escherichia coli, ATCC25922, 18 h, read-out: MIC): 0.008 µg/mL (≈ 0.0202 µM) | MIC ([6]; Escherichia coli, CMC8450, 18 h, read-out: MIC): 0.03 µg/mL (≈ 0.0757 µM) | MIC ([7]; Escherichia coli, MOR8420, 18 h, read-out: MIC): 0.015 µg/mL (≈ 0.0378 µM) | MIC ([8]; Escherichia coli, VGH8419, 18 h, read-out: MIC): 0.015 µg/mL (≈ 0.0378 µM) | MIC ([9]; Klebsiella pneumoniae, CMC8431, 18 h, read-out: MIC): 0.06 µg/mL (≈ 0.151 µM) | MIC ([10]; Klebsiella pneumoniae, IO835, 18 h, read-out: MIC): 0.12 µg/mL (≈ 0.303 µM) | MIC ([11]; Klebsiella pneumoniae, MOR8424, 18 h, read-out: MIC): 0.12 µg/mL (≈ 0.303 µM) | MIC ([13]; Morganella morganii, CMC8438, 18 h, read-out: MIC): 0.06 µg/mL (≈ 0.151 µM) | MIC ([14]; Morganella morganii, MOR8445, 18 h, read-out: MIC): 0.03 µg/mL (≈ 0.0757 µM) | MIC ([15]; Morganella morganii, VHG8412, 18 h, read-out: MIC): 0.5 µg/mL (≈ 1.26 µM) | MIC ([17]; Providencia rettgeri, IO8321, 18 h, read-out: MIC): 0.12 µg/mL (≈ 0.303 µM) | MIC ([18]; Providencia, CMC833, 18 h, read-out: MIC): 4 µg/mL (≈ 10.1 µM) | MIC ([19]; Pseudomonas aeruginosa, CMC8320, 18 h, read-out: MIC): 2 µg/mL (≈ 5.05 µM) | MIC ([20]; Pseudomonas aeruginosa, K8416, 18 h, read-out: MIC): 4 µg/mL (≈ 10.1 µM) | MIC ([22]; Pseudomonas aeruginosa, VGH843, 18 h, read-out: MIC): 8 µg/mL (≈ 20.2 µM) | MIC ([24]; Serratia marcescens, CMC8374, 18 h, read-out: MIC): 16 µg/mL (≈ 40.4 µM) | MIC ([26]; Serratia marcescens, MOR8441, 18 h, read-out: MIC): 0.5 µg/mL (≈ 1.26 µM) | MIC [38]: 0.12 µg/mL (≈ 0.303 µM) | MIC ([28]; Staphylococcus aureus, CMC83131, 18 h, read-out: MIC): 0.25 µg/mL (≈ 0.631 µM) | MIC ([29]; Staphylococcus aureus, K8226, 18 h, read-out: MIC): 0.5 µg/mL (≈ 1.26 µM) | MIC ([32]; Staphylococcus aureus, VGH8447, 18 h, read-out: MIC): 0.12 µg/mL (≈ 0.303 µM) | MIC ([33]; Enterococcus faecalis, CMC83120, 18 h, read-out: MIC): 0.2 µg/mL (≈ 0.505 µM) | MIC ([35]; Enterococcus faecalis, UCI8530, 18 h, read-out: MIC): 1 µg/mL (≈ 2.52 µM) | MIC ([37]; Enterococcus faecalis, VGH8469, 18 h, read-out: MIC): 0.5 µg/mL (≈ 1.26 µM)
